Data: paper PMC9127186, “Molecular Basis Underlying Hepatobiliary and Renal Excretion of Phenolic Acids of Salvia miltiorrhiza Roots (Danshen)” (Frontiers in Pharmacology, 2022)

Tests used:
[1] = target: T1, human OCT2 (Homo sapiens, UniProt O15244); details: 10 min, 100 μM
T1 sequence (O15244 1-555): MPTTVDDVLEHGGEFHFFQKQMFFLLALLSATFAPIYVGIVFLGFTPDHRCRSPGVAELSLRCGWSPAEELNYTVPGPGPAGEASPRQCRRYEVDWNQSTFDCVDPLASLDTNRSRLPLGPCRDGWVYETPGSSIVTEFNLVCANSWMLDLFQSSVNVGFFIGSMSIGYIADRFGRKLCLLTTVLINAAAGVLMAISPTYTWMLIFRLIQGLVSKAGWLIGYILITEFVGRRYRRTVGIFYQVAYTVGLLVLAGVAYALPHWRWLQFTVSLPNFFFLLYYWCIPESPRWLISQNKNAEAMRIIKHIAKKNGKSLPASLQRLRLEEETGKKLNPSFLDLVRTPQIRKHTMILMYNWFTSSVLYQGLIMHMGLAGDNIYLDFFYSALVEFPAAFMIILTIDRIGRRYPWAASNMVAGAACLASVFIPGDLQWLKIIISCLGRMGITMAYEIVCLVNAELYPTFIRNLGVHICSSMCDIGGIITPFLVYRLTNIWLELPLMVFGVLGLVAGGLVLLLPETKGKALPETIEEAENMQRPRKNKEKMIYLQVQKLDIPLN

[2] = target: T2, rat Oct1 (Rattus norvegicus, UniProt Q63089); details: 10 min, 100 μM
T2 sequence (Q63089 1-556): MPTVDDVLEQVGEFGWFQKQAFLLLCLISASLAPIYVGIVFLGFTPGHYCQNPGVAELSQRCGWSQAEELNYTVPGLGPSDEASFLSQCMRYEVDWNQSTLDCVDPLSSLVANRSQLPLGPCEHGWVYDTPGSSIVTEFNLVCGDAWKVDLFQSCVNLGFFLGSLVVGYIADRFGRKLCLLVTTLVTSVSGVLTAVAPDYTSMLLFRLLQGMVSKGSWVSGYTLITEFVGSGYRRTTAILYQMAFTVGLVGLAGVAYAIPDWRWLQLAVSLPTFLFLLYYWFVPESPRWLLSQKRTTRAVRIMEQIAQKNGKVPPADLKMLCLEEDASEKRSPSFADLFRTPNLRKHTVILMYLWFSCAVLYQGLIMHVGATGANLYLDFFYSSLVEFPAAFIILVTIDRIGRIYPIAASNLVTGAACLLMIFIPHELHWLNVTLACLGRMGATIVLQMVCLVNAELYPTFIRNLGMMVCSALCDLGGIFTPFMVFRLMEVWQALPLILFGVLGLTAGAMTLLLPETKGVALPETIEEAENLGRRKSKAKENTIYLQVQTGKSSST

[3] = target: T3, rat Pept1 (Rattus norvegicus, UniProt P51574); details: 10 min, 100 μM, pH 6
T3 sequence (P51574 1-710): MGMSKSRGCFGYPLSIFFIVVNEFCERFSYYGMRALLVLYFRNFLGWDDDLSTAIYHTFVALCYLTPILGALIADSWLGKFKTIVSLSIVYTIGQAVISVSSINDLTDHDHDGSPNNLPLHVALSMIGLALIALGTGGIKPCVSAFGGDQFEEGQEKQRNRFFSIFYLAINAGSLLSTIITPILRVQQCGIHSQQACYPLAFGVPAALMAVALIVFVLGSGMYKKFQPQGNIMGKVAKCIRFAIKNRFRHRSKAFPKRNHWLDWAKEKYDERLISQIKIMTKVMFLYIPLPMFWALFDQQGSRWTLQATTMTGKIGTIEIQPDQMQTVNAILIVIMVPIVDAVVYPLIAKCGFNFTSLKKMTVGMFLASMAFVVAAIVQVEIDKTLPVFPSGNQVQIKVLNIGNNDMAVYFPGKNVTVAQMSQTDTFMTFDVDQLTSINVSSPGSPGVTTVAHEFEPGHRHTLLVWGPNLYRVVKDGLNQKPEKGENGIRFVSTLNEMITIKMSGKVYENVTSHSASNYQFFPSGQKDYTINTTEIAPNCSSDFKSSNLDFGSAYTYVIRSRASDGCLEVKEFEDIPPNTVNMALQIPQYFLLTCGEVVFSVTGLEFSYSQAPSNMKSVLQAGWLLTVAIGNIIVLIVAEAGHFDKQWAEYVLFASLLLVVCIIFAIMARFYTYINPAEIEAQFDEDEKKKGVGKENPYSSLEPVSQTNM

[4] = target: T4, rat Oatp1a1 (Rattus norvegicus, UniProt P46720); details: 10 min, 100 μM
T4 sequence (P46720 1-670): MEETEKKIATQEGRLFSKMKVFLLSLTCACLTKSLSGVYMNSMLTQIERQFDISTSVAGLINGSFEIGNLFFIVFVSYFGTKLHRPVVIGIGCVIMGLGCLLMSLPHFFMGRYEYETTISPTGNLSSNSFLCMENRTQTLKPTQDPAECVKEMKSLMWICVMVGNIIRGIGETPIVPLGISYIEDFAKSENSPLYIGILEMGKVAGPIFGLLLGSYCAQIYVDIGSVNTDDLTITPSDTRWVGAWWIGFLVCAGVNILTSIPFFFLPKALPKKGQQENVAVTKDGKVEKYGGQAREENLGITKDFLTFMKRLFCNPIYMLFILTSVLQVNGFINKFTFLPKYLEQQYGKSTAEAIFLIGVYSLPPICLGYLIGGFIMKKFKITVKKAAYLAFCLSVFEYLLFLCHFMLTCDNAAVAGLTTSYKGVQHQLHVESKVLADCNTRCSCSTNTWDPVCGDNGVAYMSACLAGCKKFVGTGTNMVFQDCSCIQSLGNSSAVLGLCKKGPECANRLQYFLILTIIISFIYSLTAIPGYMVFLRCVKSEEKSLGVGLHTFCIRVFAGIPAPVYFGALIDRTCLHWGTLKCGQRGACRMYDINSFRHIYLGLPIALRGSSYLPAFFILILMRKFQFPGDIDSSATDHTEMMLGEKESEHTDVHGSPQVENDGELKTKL

| SMILES | TransportTC/TransportMC ratio (net transport ratio) [1] | TransportTC/TransportMC ratio (net transport ratio) [2] | TransportTC/TransportMC ratio (net transport ratio) [3] | TransportTC/TransportMC ratio (net transport ratio) [4] |
| --- | --- | --- | --- | --- |
| O=C(/C=C/c1ccc(O)c(O)c1)O[C@H](Cc1ccc(O)c(O)c1)C(=O)O [Rosmarinic acid, rosmarinic acid] | 0.85 ± 0.29 | 1.56 ± 0.13 | 1.14 ± 0.13 | 1.45 ± 0.57 |
| O=C(/C=C/c1ccc(O)c(O)c1/C=C/c1ccc(O)c(O)c1)O[C@H](Cc1ccc(O)c(O)c1)C(=O)O [Salvianolic acid A, salvianolic acid A] | 0.93 ± 0.32 | 1.13 ± 0.19 | 1.32 ± 0.13 | 2.24 ± 0.67 |
